Here are results for ten molecules from US20220185744A1, “FERTILISING COMPOSITION WHICH INCLUDES A PLANT-ASSIMILABLE PHOSPHORUS AND CALCIUM POTENTIATOR AND USE THEREOF” (priority 2019, published 2022).

The first assay deals with maize plants. As to the kind of experiment: Pot trial: single root-exudate metabolites applied to soil, dry biomass of maize plants at 6 weeks. The format is in vivo. The note with it: 1 kg/ha, pot trial. An excerpt: These metabolites were: gluconic acid, glyceric acid, lactic acid, glucose, threonic acid, fructose, aspartic acid, serine, glycerol, arabinose and glutamine. […] The effect of the metabolites was compared with a negative control (no treatment) and a positive control with a conventional phosphate fertiliser (triple superphosphate at a dose of 100 phosphorus fertiliser units —P2O5— per hectare). […] This level of assimilable phosphorus corresponds to 4.5 kg of P2O5 per hectare (considering 30 centimetres of arable soil and an average density of 1,300 kg/m^3, the mass per hectare would be approximately 3,900 tonnes).
`O=C(O)C(O)CO` (centres unmarked) [Glyceric acid, 2,3-dihydroxypropanoic acid]: the “Growth enhancement in maize (in words)” value is “the most growth-enhancing metabolite in maize”.

Still in this assay, the particulars now being: metabolite 1 kg/ha in pot with 3 kg soil (assimilable P 0.5 ppm), triple superphosphate 100 P2O5 units/ha.
On to `O=C[C@@H](O)[C@H](O)[C@H](O)CO` [Arabinose], for which the “Dry biomass of maize plants at 6 weeks of growth, dry weight” value (“Dry biomass of maize plants” for short) is reported as 1.26 g.

Take `N[C@@H](CC(=O)O)C(=O)O` [Aspartic acid]: the “Dry biomass of maize plants” value came out at 1.16 g.

For the molecule `O=C(CO)[C@@H](O)[C@H](O)[C@H](O)CO` [Fructose], the “Dry biomass of maize plants” value was 1.38 g.

For the molecule `O=C(O)[C@H](O)[C@@H](O)[C@H](O)[C@H](O)CO` [Gluconic acid], the “Dry biomass of maize plants” value came to 1.77 g.

Regarding `NC(=O)CC[C@H](N)C(=O)O` [Glutamine], the “Dry biomass of maize plants” value is given as 1.55 g.

In the case of `O=C(O)C(O)CO` (centres unmarked) [Glyceric acid, 2,3-dihydroxypropanoic acid], the “Dry biomass of maize plants” value came to 1.93 g.

Take `OCC(O)CO` [Glycerol]: the “Dry biomass of maize plants” value is 1.30 g.

As to `CC(O)C(=O)O` (centres unmarked) [Lactic acid], the “Dry biomass of maize plants” value stood at 1.73 g.

For `N[C@@H](CO)C(=O)O` [Serine], the “Dry biomass of maize plants” value amounted to 1.31 g.

On to `O=C(O)[C@@H](O)[C@H](O)CO` [Threonic acid], for which the “Dry biomass of maize plants” value was found to be 1.14 g.
